Laboratory results reported in patent publication US20230331649A1, “INHIBITORS OF PROTEIN FUCOSYLATION AND USES THEREOF” (SIMON FRASER UNIVERSITY, priority 2020, published 2023).

What was measured:
CHO K1 cells = assay: Cell-based fucosylation assay, fluorescein-AAL lectin staining of CHO K1 cells; set-up: species or system Chinese hamster; details: Cricetulus griseus, 120 h, five days with inhibitor, 3.2 nM-100 μM, AAL lectin fluorescence normalized to DMSO vehicle
Procedure: CHO K1 cells were grown in a T175 flask, in F12 medium supplemented with 10% […], at 37° C., 5% CO2. 350 cells were seeded in every well of a 384-well plate (Corning 4680, 45 μL final) and incubated at 37° C. overnight. Inhibitors were stored as 20 mM stock solution in DMSO. Inhibitors were diluted to the desired concentration in CHO cells culture medium and were dispensed into the wells of the plate (50 μL final well volume). An equivalent amount of DMSO (vehicle) was dispensed into control wells. Cells were incubated in the presence of inhibitors for five days. Following treatment, the culture medium was removed and cells were washed four times with 60 μL of PBS-T using a combination washer/dispenser (EL406, Biotek). 50 μL of 4% PFA in PBS-T was then dispensed into the plate and cells were incubated for 15 min at room temperature before being washed four times with 60 μL of PBS-T. Cells were subsequently incubated for 45 minutes at room temperature with 5% Bovine Serum Albumin (BSA) in PBS-T to prevent non-specific lectin binding. The BSA solution was then replaced by 50 μL of a solution of 5 μg/mL of Fluorescein-conjugated Aleuria Aurentia Lectin (AAL) (Vector Laboratories) and cells were kept at room temperature in the dark for 1 h. Negative controls were co-incubated with AAL and 100 mM fucose as a lectin antagonist. Cells were subsequently washed four times with 60 μL PBS-T. Then, 50 μL of 1 μg/mL Hoechst solution in PBS was dispensed into each well and cells were directly imaged using an ImageXpress MicroXLS high content microscope (Molecular Devices). Four sites per wells were imaged using DAPI and FITC channels (50 ms and 300 ms exposure respectively). Images were processed using MetaXpress software. Briefly, for each site, the integrated average fluorescence was quantified and normalized for the corresponding number of cells determined with nuclear staining. Results from each site were combined to provide a single value for each well. At least four independent wells were imaged for each condition providing four biological replicates. IC50 curves were plotted using GraphPad Prism. Results were normalized on the average value for vehicle wells (DMSO treated).
We assessed the potency of carbafucose and selected analogs through dose-response experiments over a 3.2 nM-100 μM range of concentrations in the cell-based assay. The cell-based fucosylation antagonist 2-deoxy-2-fluoro-L-fucose (2FFuc) was used as a control (FIGS. 1A-D).

Expi-CHO cells = assay: Glycan analysis of HER2 antibody from compound-treated Expi-CHO cells (PNGaseF release, CE-LIF); assay type: cell-based, Chinese hamster; details: 0.1 mM compound added a day after transfection with HER2 antibody, harvested after 8 days, released glycans by CE-LIF; for Glycan A2 (alt name G0) (%): non-fucosylated glycan
Procedure: Expi-CHO cells were treated with compounds 16, 7, 9, 13, 6, 8, 14 and 15 at 0.1 mM (final conc.) a day after transfection with HER2 antibody. The transfected cells were harvested after 8 days and purified HER2 antibodies were deglycosylated using PNGaseF and the released glycans were purified and analyzed by capillary electrophoresis-laser-induced fluorescence (CE-LIF).

Row | Compound | IC50 (CHO K1 cells) [µM] | Glycan A2BG2 (alt name G2B) (%) (Expi-CHO cells) | Glycan FA2(3)G1 (alt name G1′F) (%) (Expi-CHO cells) | Glycan FA2(6)G1 (alt name G1F) (%) (Expi-CHO cells) | Glycan FA2(6)G1S1 (alt name G1FS1) (%) (Expi-CHO cells) | Glycan FA2 (alt name G0F) (%) (Expi-CHO cells) | Glycan FA2G2S1 (alt name G2FS1) (%) (Expi-CHO cells) | Glycan FA2G2S2 (alt name G2FS2) (%) (Expi-CHO cells) | Glycan A2 (alt name G0) (%) (Expi-CHO cells)
1 | C=C[C@@H]1C[C@H](O)[C@@H](O)[C@H](O)[C@@H]1O [1-42] | 137 ± 79 |  |  |  |  |  |  |  | 
2 | C[C@@H]1C[C@H](OP(=O)(O)O)[C@@H](O)[C@H](O)[C@@H]1O [2-3] | 39.5 ± 30.3 |  |  |  |  |  |  |  | 
3 | C[C@@H]1OC(O)[C@@H](F)[C@H](O)[C@@H]1O (stereo partly drawn) [2FFuc, 2-deoxy-2-fluoro-L-fucose, reference compound] | 137 ± 79 |  |  |  |  |  |  |  | 
4 | CC1=C[C@H](O)[C@@H](F)[C@H](O)[C@@H]1O [Compound 6] |  | 0.8 | 0.6 | 4.1 | 0.8 | 77.7 | 15.9 | 0.0 | 0.0
5 | CC(=O)O[C@H]1[C@H](F)[C@@H](OC(C)=O)C=C(C)[C@H]1OC(C)=O [Compound 7] |  | 0.0 | 0.0 | 3.9 | 0.0 | 79.5 | 16.6 | 0.0 | 0.0
6 | CC1C[C@H](O)[C@@H](F)[C@H](O)[C@@H]1O (stereo partly shown) [Compound 8] |  | 0.0 | 0.0 | 3.9 | 0.0 | 79.3 | 16.8 | 0.0 | 0.0
7 | CC(=O)O[C@H]1[C@H](F)[C@@H](OC(C)=O)CC(C)[C@H]1OC(C)=O (stereo partly shown) [Compound 9] |  | 0.8 | 0.0 | 3.9 | 0.0 | 78.9 | 16.4 | 0.0 | 0.0
8 | CC1=C[C@H](O)[C@@H](O)[C@H](O)[C@@H]1O [Compound 13] |  | 0.8 | 0.0 | 3.9 | 0.9 | 77.3 | 17.0 | 0.0 | 0.0
9 | CC1C[C@H](O)[C@@H](O)[C@H](O)[C@@H]1O (stereo partly shown) [Compound 15] |  | 0.0 | 0.0 | 0.0 | 17.2 | 8.8 | 0.0 | 3.3 | 70.6
10 | C[C@@H]1C[C@H](O)[C@@H](O)[C@H](O)[C@@H]1O [carbafucose] | 16.1 ± 7.7 |  |  |  |  |  |  |  | 
